Data reported in patent EP0684043A1, “Therapeutic composition for corneal impairment containing a phosphonic acid diester compound” (Senju Pharmaceutical Co., Ltd., priority 1994, dated 1995).
Like-named read-outs stand apart in the source and are kept apart here.

How the values were obtained:
Acute toxicity (LD50) = conditions: rat, in vivo, rats, read-out: LD₅₀
Method: The compound for use as an active ingredient in the therapeutic composition for corneal impairment according to this invention is a very safe substance with an extremely low toxic potential and, as such, can be used with advantage for the purposes of this invention. [e.g. the LD₅₀ values of L-ascorbyl DL-α-tocopheryl phosphate potassium (hereinafter referred to briefly as EPC-K) ≧ 5 g/kg p.o. (rats) and ≧ 100 mg/kg i.v. (rats)].

[1] = tested on: UV-induced corneal lesions in rabbits; test: Inhibitory effect on UV-induced corneal lesions in rabbits (fluorescein penetration into cornea, anterior fluorophotometer); format: in vivo, White rabbits; conditions: rabbit cornea
Method: The inhibitory effect of the present compound on UV-induced corneal lesions in rabbits was evaluated. Test substance: L-Ascorbyl DL-α-tocopheryl phosphate potassium (abbreviation: EPC-K). Method: White rabbits were used; 4 animals assigned to the present compound treatment group and 3 assigned to a control group (the nictitating membrane was excised beforehand).
For UV irradiation, Hoya-Schott's HLS200U (dominant wavelength 365 nm) equipped with a 200 W mercury-xenon lamp as the light source was used. Ushio Electric's Unimeter UIT-101 was used for the determination of luminous energy.
One eye of each rabbit was kept open with an eye speculum and set at a distance of 43 cm from the light source so that the irradiation energy would be 0.024 J/cm². The eye was irradiated with ultraviolet light under the conditions of 0.2 mW/cm² and 2 minutes. The fellow eye was protected with an eye patch.
After UV irradiation, the vehicle (2.6% concentrated glycerin solution) was instilled in the eyes of rabbits in the control group 3 times daily and 0.1% EPC-K (dissolved in 2.6% concentrated glycerin solution) was instilled as often into the eyes of rabbits in the present compound treatment group.
The degree of rabbit corneal lesion was evaluated by the following method^1). Using fluorescein as a tracer, the fluorescence intensity of the tracer dye penetrating into the cornea within a predetermined region was measured for a quantitative assessment of the barrier function of the corneal epithelium (The corneal epithelium has a barrier function^2) to restrict penetration of any substance into the deep layer of the cornea and when an erosion or other injury occurs in the corneal epithelium, this barrier function is compromised so that the penetration of the substance into the depth of the cornea is increased). Thus, at 0, 0.5, 6, 12, 24, 48 and 72 hours after UV irradiation, fluorescein sodium was instilled into the eye and the fluorescence intensity of the fluorescein sodium that had penetrated into the cornea was measured with a Kowa anterior fluorophotometer. 1) Norihiko Yokoi et al.: Quantitative evaluation of corneal epithelial barrier function with a new fluorophotometer, Journal of the Eye, 10(8); 1357-1363, 1993 2) Klyce SD and Crosson CE: Transport processes across the rabbit corneal epithelium, a review. Curr Eye Res 4 4;427-432, 1985.

`Cc1c(C)c2c(c(C)c1OP(=O)(O)OC1=C(O)[C@@H]([C@@H](O)CO)OC1=O)CCC(C)(CCCC(C)CCCC(C)CCCC(C)C)O2` (mixture of isomers) [EPC-K, L-ascorbyl DL-α-tocopheryl phosphate potassium] gave an LD50 (Acute toxicity (LD50); iv) of no less than 100 mg/kg, an LD50 (Acute toxicity (LD50); po) of no less than 5000 mg/kg and an intensity of fluorescence ([1]; 0 hours after UV irradiation, 0.1% EPC-K in 2.6% concentrated glycerin solution instilled 3 times daily, control group 457) of 259. The intensity of fluorescence ([1]; 0.5 hours after UV irradiation, 0.1% EPC-K instilled 3 times daily, control group 791) was 447, the intensity of fluorescence ([1]; 6 hours after UV irradiation, 0.1% EPC-K instilled 3 times daily, control group 899) was 695 and the intensity of fluorescence ([1]; 12 hours after UV irradiation, 0.1% EPC-K instilled 3 times daily, control group 3813) was 1038. It also gave an intensity of fluorescence ([1]; 24 hours after UV irradiation, 0.1% EPC-K instilled 3 times daily, control group 3860) of 875, an intensity of fluorescence ([1]; 48 hours after UV irradiation, 0.1% EPC-K instilled 3 times daily, control group 870) of 343 and an intensity of fluorescence ([1]; 72 hours after UV irradiation, 0.1% EPC-K instilled 3 times daily, control group 655) of 311.
